Laboratory results published in US9259487B2, “Transgenic non-human animal model of neurodegenerative disease” (Nagasaki University, priority 2011, dated 2016).

What was measured:
Type in all cases: in vivo, mouse
GgFF mice [1] = assay: Survival ratio after 15-min transient middle cerebral artery occlusion (tMCAO); details: 8- to 16-week-old GgFF mice, administration group
GgFF mice [2] = assay: Rotarod dwelling time (30 rpm, 40 rpm) of aged mice deficient in prothymosin α in striatum
GgFF mice [3] = assay: Clasping reflex score of aged mice deficient in prothymosin α in striatum
GgFF mice [4] = assay: Rotarod dwelling time (motility function) after 15-min tMCAO; details: 8- to 16-week-old GgFF mice, selegiline 10 mg/kg intraperitoneally after 15-min tMCAO, 6 rpm and 12 rpm
GgFF mice [5] = assay: Clinical score (motility dysfunction) after 15-min tMCAO; details: 8- to 16-week-old GgFF mice, selegiline 10 mg/kg intraperitoneally after 15-min tMCAO

## CCCN[C@H]1CCc2nc(N)sc2C1 [pramipexole]
GgFF mice [1]; pramipexole 0.01 mg/kg intraperitoneally after 15-min tMCAO
  survival ratio: 75%

## Cl.Oc1cc2c(cc1O)C(c1ccccc1)CNCC2 (racemic) [SKF38393, (±)-1-phenyl-2,3,4,5-tetrahydro-1H-3-benzazepine-7,8-diol HCl]
GgFF mice [2]; 20- to 30-week-old GgFF mice, 5 hr after intraperitoneal administration of 30 mg/kg, 30 rpm, vs vehicle
  motility dysfunction in the Rotarod test: significantly improved

## CC12CC3CC(C)(C1)CC(N)(C3)C2 [memantine]
GgFF mice [3]; memantine 10 mg/kg intraperitoneally every day from Day 1 to Day 7
  symptom (clasping scores), chronic administration: remarkable recovery
GgFF mice [2]; aged GgFF mice, memantine 10 mg/kg intraperitoneally every day from Day 1 to Day 7, 30 rpm and 40 rpm
  symptom (motility function by Rotarod), chronic administration: remarkable recovery
GgFF mice [2]; aged GgFF mice, memantine 10 mg/kg intraperitoneally, 24 hr after the administration
  motility function, acute (within 24 hr): most recovered

## C#CCN(C)[C@H](C)Cc1ccccc1 [selegiline]
GgFF mice [4]
  motility function (dwelling time on Rotarod, Latency to fall) vs non-administration group: improved motility function
GgFF mice [1]; selegiline 10 mg/kg intraperitoneally after 15-min tMCAO
  survival ratio: markedly-improved
GgFF mice [3]; selegiline 10 mg/kg intraperitoneally
  clasping scores vs before administration, acute (within 24 hr): tended to improve
GgFF mice [5]
  motility dysfunction (Clinical score): remarkably improved
GgFF mice [2]; aged GgFF mice, selegiline 10 mg/kg intraperitoneally, 30 rpm and 40 rpm
  dwelling time on the Rotarod vs before administration, acute (within 24 hr): tended to be long
